Measured values from patent publication US10582709B2, “Butyrolactones as herbicides” (FMC Corporation, priority 2015, dated 2020).

Experiments:
Type in all cases: in vivo
[1] = tested on: ragweed (common ragweed, Ambrosia elatior); test: Test A preemergence, ragweed; conditions: visual rating after approx. 10 d, 0 to 100 scale, 0 no effect, 100 complete control
Procedure, shortened: (§1)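 Seeds in loam–sand blend received a preemergence directed soil spray; postemergence sprays went on plants 2–10 cm tall at the one- to two-leaf stage. Compounds were in non-phytotoxic solvent with surfactant. After ~10 d in greenhouse, injury was rated visually versus untreated controls, 0 (no effect) to 100 (complete control).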

[2] = tested on: ryegrass, Italian (Italian ryegrass, Lolium multiflorum); test: Test A postemergence, Italian ryegrass; conditions: visual rating after approx. 10 d, 0 to 100 scale, 0 no effect, 100 complete control
Procedure, shortened: as §1

[3] = tested on: pigweed (Amaranthus retroflexus); test: Test A preemergence, pigweed; conditions: visual rating after approx. 10 d, 0 to 100 scale, 0 no effect, 100 complete control
Procedure, shortened: as §1

[4] = tested on: galium (catchweed bedstraw, Galium aparine); test: Test A postemergence, galium; conditions: visual rating after approx. 10 d, 0 to 100 scale, 0 no effect, 100 complete control
Procedure, shortened: as §1

kochia (Kochia scoparia) [5] = test: Test A postemergence, kochia; conditions: visual rating after approx. 10 d, 0 to 100 scale, 0 no effect, 100 complete control
Procedure, shortened: as §1

[6] = tested on: blackgrass (Alopecurus myosuroides); test: Test A postemergence, blackgrass; conditions: visual rating after approx. 10 d, 0 to 100 scale, 0 no effect, 100 complete control
Procedure, shortened: as §1

[7] = tested on: barnyardgrass (Echinochloa crus-galli); test: Test A postemergence, barnyardgrass; conditions: visual rating after approx. 10 d, 0 to 100 scale, 0 no effect, 100 complete control
Procedure, shortened: as §1

[8] = tested on: pigweed (Amaranthus retroflexus); test: Test A postemergence, pigweed; conditions: visual rating after approx. 10 d, 0 to 100 scale, 0 no effect, 100 complete control
Procedure, shortened: as §1

[9] = tested on: barnyardgrass (Echinochloa crus-galli); test: Test A preemergence, barnyardgrass; conditions: visual rating after approx. 10 d, 0 to 100 scale, 0 no effect, 100 complete control
Procedure, shortened: as §1

kochia (Kochia scoparia) [10] = test: Test A preemergence, kochia; conditions: visual rating after approx. 10 d, 0 to 100 scale, 0 no effect, 100 complete control
Procedure, shortened: as §1

[11] = tested on: barnyardgrass (Echinochloa crus-galli); test: Test B flooded paddy test, barnyardgrass; conditions: applied to paddy water at 2-leaf stage, 13 to 15 d, scale 0 no effect to 100 complete control
Procedure, shortened: (§2)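 Plants at the 2-leaf stage were flooded to 3 cm above soil, and test compounds were applied directly into the paddy water, which was held at that depth throughout. After 13 to 15 d in a greenhouse, injury was rated visually against untreated controls on a 0–100 scale (0 no effect, 100 complete control).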

[12] = tested on: ducksalad (Heteranthera limosa); test: Test B flooded paddy test, ducksalad; conditions: applied to paddy water at 2-leaf stage, 13 to 15 d, scale 0 no effect to 100 complete control
Procedure, shortened: as §2

[13] = tested on: foxtail, giant (giant foxtail, Setaria faberii); test: Test A postemergence, giant foxtail; conditions: visual rating after approx. 10 d, 0 to 100 scale, 0 no effect, 100 complete control
Procedure, shortened: as §1

[14] = tested on: ragweed (common ragweed, Ambrosia elatior); test: Test A postemergence, ragweed; conditions: visual rating after approx. 10 d, 0 to 100 scale, 0 no effect, 100 complete control
Procedure, shortened: as §1

[15] = tested on: foxtail, giant (giant foxtail, Setaria faberii); test: Test A preemergence, giant foxtail; conditions: visual rating after approx. 10 d, 0 to 100 scale, 0 no effect, 100 complete control
Procedure, shortened: as §1

rice (Oryza sativa) = test: Test B flooded paddy test, rice; conditions: applied to paddy water at 2-leaf stage, 13 to 15 d, scale 0 no effect to 100 complete control
Procedure, shortened: as §2

corn (Zea mays) [16] = test: Test A postemergence, corn; conditions: visual rating after approx. 10 d, 0 to 100 scale, 0 no effect, 100 complete control
Procedure, shortened: as §1

[17] = tested on: ryegrass, Italian (Italian ryegrass, Lolium multiflorum); test: Test A preemergence, Italian ryegrass; conditions: visual rating after approx. 10 d, 0 to 100 scale, 0 no effect, 100 complete control
Procedure, shortened: as §1

[18] = tested on: sedge, umbrella (small-flower umbrella sedge, Cyperus difformis); test: Test B flooded paddy test, umbrella sedge; conditions: applied to paddy water at 2-leaf stage, 13 to 15 d, scale 0 no effect to 100 complete control
Procedure, shortened: as §2

[19] = tested on: wheat (Triticum aestivum); test: Test A postemergence, wheat; conditions: visual rating after approx. 10 d, 0 to 100 scale, 0 no effect, 100 complete control
Procedure, shortened: as §1

[20] = tested on: morningglory (Ipomoea spp.); test: Test A preemergence, morningglory; conditions: 1000 g ai/ha, visual rating after approx. 10 d, 0 to 100 scale, 0 no effect, 100 complete control
Text: (§3) Seeds of plant species selected from barnyardgrass (Echinochloa crus-galli), crabgrass (large crabgrass, Digitaria sanguinalis), kochia (Kochia scoparia), ragweed (common ragweed, Ambrosia elatior), morningglory (Ipomoea spp.), velvetleaf (Abutilon theophrasti), ryegrass, Italian (Italian ryegrass, Lolium multiflorum), foxtail, giant (giant foxtail, Setaria faberii), wheat (Triticum aestivum), corn (Zea mays), and pigweed (Amaranthus retroflexus), were planted into a blend of loam soil and sand and treated preemergence with a directed soil spray using test chemicals formulated in a non-phytotoxic solvent mixture which included a surfactant. At the same time, plants selected from these crop and weed species and also blackgrass (Alopecurus myosuroides), and galium (catchweed bedstraw, Galium aparine), were planted in pots containing the same blend of loam soil and sand and treated with postemergence applications of test chemicals formulated in the same manner. Plants ranged in height from 2 to 10 cm and were in the one- to two-leaf stage for the postemergence treatment. Treated plants and untreated controls were maintained in a greenhouse for approximately 10 d, after which time all treated plants were compared to untreated controls and visually evaluated for injury. Plant response ratings, summarized in Table A, are based on a 0 to 100 scale where 0 is no effect and 100 is complete control. A dash (-) response means no test result.

[21] = tested on: morningglory (Ipomoea spp.); test: Test A postemergence, morningglory; conditions: 1000 g ai/ha, visual rating after approx. 10 d, 0 to 100 scale, 0 no effect, 100 complete control
Text: as §3

[22] = tested on: crabgrass (large crabgrass, Digitaria sanguinalis); test: Test A postemergence, crabgrass; conditions: 1000 g ai/ha, visual rating after approx. 10 d, 0 to 100 scale, 0 no effect, 100 complete control
Text: as §3

[23] = tested on: wheat (Triticum aestivum); test: Test A preemergence, wheat; conditions: 1000 g ai/ha, visual rating after approx. 10 d, 0 to 100 scale, 0 no effect, 100 complete control
Text: as §3

[24] = tested on: velvetleaf (Abutilon theophrasti); test: Test A postemergence, velvetleaf; conditions: 1000 g ai/ha, visual rating after approx. 10 d, 0 to 100 scale, 0 no effect, 100 complete control
Text: as §3

corn (Zea mays) [25] = test: Test A preemergence, corn; conditions: 1000 g ai/ha, visual rating after approx. 10 d, 0 to 100 scale, 0 no effect, 100 complete control
Text: as §3

[26] = tested on: crabgrass (large crabgrass, Digitaria sanguinalis); test: Test A preemergence, crabgrass; conditions: 1000 g ai/ha, visual rating after approx. 10 d, 0 to 100 scale, 0 no effect, 100 complete control
Text: as §3

[27] = tested on: velvetleaf (Abutilon theophrasti); test: Test A preemergence, velvetleaf; conditions: 1000 g ai/ha, visual rating after approx. 10 d, 0 to 100 scale, 0 no effect, 100 complete control
Text: as §3

O=C(Nc1ccccc1F)C1C(=O)OCC1c1ccc(C(F)(F)F)cc1 (racemic) [Compound 8]
30: Plant response rating, Flood, Ducksalad ([12]; 250 g ai/ha) | Plant response rating, Flood, Ducksalad ([12]; 1000 g ai/ha)
20: Plant response rating, Barnyardgrass ([7]; 500 g ai/ha) | Plant response rating, Barnyardgrass ([9]; 500 g ai/ha) | Plant response rating, Foxtail, Giant ([13]; 125 g ai/ha) | Plant response rating, Foxtail, Giant ([15]; 125 g ai/ha)
40: Plant response rating, Foxtail, Giant ([13]; 500 g ai/ha) | Plant response rating, Foxtail, Giant ([15]; 500 g ai/ha)
0: Plant response rating, Ragweed ([1]; 125 g ai/ha) | Plant response rating, Ragweed ([1]; 500 g ai/ha) | Plant response rating, Ryegrass, Italian ([2]; 125 g ai/ha) | Plant response rating, Ryegrass, Italian ([2]; 500 g ai/ha) | Plant response rating, Pigweed ([3]; 125 g ai/ha) | Plant response rating, Pigweed ([3]; 500 g ai/ha) | Plant response rating, Galium ([4]; 125 g ai/ha) | Plant response rating, Galium ([4]; 500 g ai/ha) | Plant response rating, Kochia (kochia (Kochia scoparia) [5]; 125 g ai/ha) | Plant response rating, Kochia (kochia (Kochia scoparia) [5]; 500 g ai/ha) | Plant response rating, Blackgrass ([6]; 125 g ai/ha) | Plant response rating, Blackgrass ([6]; 500 g ai/ha) | Plant response rating, Barnyardgrass ([7]; 125 g ai/ha) | Plant response rating, Pigweed ([8]; 125 g ai/ha) | Plant response rating, Pigweed ([8]; 500 g ai/ha) | Plant response rating, Barnyardgrass ([9]; 125 g ai/ha) | Plant response rating, Kochia (kochia (Kochia scoparia) [10]; 125 g ai/ha) | Plant response rating, Kochia (kochia (Kochia scoparia) [10]; 500 g ai/ha) | Plant response rating, Flood, Barnyardgrass ([11]; 250 g ai/ha) | Plant response rating, Flood, Barnyardgrass ([11]; 1000 g ai/ha) | Plant response rating, Ragweed ([14]; 125 g ai/ha) | Plant response rating, Ragweed ([14]; 500 g ai/ha) | Plant response rating, Flood, Rice (rice (Oryza sativa); 250 g ai/ha) | Plant response rating, Flood, Rice (rice (Oryza sativa); 1000 g ai/ha) | Plant response rating, Corn (corn (Zea mays) [16]; 125 g ai/ha) | Plant response rating, Corn (corn (Zea mays) [16]; 500 g ai/ha) | Plant response rating, Ryegrass, Italian ([17]; 125 g ai/ha) | Plant response rating, Ryegrass, Italian ([17]; 500 g ai/ha) | Plant response rating, Flood, Sedge, Umbrella ([18]; 250 g ai/ha) | Plant response rating, Flood, Sedge, Umbrella ([18]; 1000 g ai/ha) | Plant response rating, Wheat ([19]; 125 g ai/ha) | Plant response rating, Wheat ([19]; 500 g ai/ha)

O=C(Nc1ccccc1Cl)C1C(=O)OCC1c1ccc(F)cc1 (racemic) [Compound 1]
70: Plant response rating, Crabgrass [26]
40: Plant response rating, Foxtail, Giant ([13]; 1000 g ai/ha) | Plant response rating, Foxtail, Giant ([15]; 1000 g ai/ha)
0: Plant response rating, Morningglory [20] | Plant response rating, Pigweed ([3]; 1000 g ai/ha) | Plant response rating, Morningglory [21] | Plant response rating, Wheat [23] | Plant response rating, Velvetleaf [24] | Plant response rating, Barnyardgrass ([9]; 1000 g ai/ha) | Plant response rating, Corn (corn (Zea mays) [25]) | Plant response rating, Corn (corn (Zea mays) [16]; 1000 g ai/ha) | Plant response rating, Velvetleaf [27] | Plant response rating, Wheat ([19]; 1000 g ai/ha)
20: Plant response rating, Barnyardgrass ([7]; 1000 g ai/ha) | Plant response rating, Pigweed ([8]; 1000 g ai/ha)
60: Plant response rating, Crabgrass [22]

O=C(Nc1ccccc1C(F)(F)F)C1C(=O)OCC1c1cccc(C(F)(F)F)c1 (racemic) [Compound 14]
30: Plant response rating, Galium ([4]; 500 g ai/ha) | Plant response rating, Blackgrass ([6]; 500 g ai/ha)
90: Plant response rating, Foxtail, Giant ([15]; 500 g ai/ha)
70: Plant response rating, Foxtail, Giant ([13]; 500 g ai/ha) | Plant response rating, Foxtail, Giant ([15]; 125 g ai/ha)
20: Plant response rating, Barnyardgrass ([7]; 500 g ai/ha) | Plant response rating, Barnyardgrass ([9]; 125 g ai/ha) | Plant response rating, Barnyardgrass ([9]; 500 g ai/ha) | Plant response rating, Kochia (kochia (Kochia scoparia) [10]; 500 g ai/ha) | Plant response rating, Foxtail, Giant ([13]; 125 g ai/ha) | Plant response rating, Ryegrass, Italian ([17]; 500 g ai/ha)
0: Plant response rating, Ragweed ([1]; 125 g ai/ha) | Plant response rating, Ragweed ([1]; 500 g ai/ha) | Plant response rating, Ryegrass, Italian ([2]; 125 g ai/ha) | Plant response rating, Ryegrass, Italian ([2]; 500 g ai/ha) | Plant response rating, Pigweed ([3]; 125 g ai/ha) | Plant response rating, Pigweed ([3]; 500 g ai/ha) | Plant response rating, Galium ([4]; 125 g ai/ha) | Plant response rating, Kochia (kochia (Kochia scoparia) [5]; 125 g ai/ha) | Plant response rating, Kochia (kochia (Kochia scoparia) [5]; 500 g ai/ha) | Plant response rating, Blackgrass ([6]; 125 g ai/ha) | Plant response rating, Barnyardgrass ([7]; 125 g ai/ha) | Plant response rating, Pigweed ([8]; 125 g ai/ha) | Plant response rating, Pigweed ([8]; 500 g ai/ha) | Plant response rating, Kochia (kochia (Kochia scoparia) [10]; 125 g ai/ha) | Plant response rating, Flood, Barnyardgrass ([11]; 500 g ai/ha) | Plant response rating, Flood, Ducksalad ([12]; 500 g ai/ha) | Plant response rating, Ragweed ([14]; 125 g ai/ha) | Plant response rating, Ragweed ([14]; 500 g ai/ha) | Plant response rating, Flood, Rice (rice (Oryza sativa); 500 g ai/ha) | Plant response rating, Corn (corn (Zea mays) [16]; 125 g ai/ha) | Plant response rating, Corn (corn (Zea mays) [16]; 500 g ai/ha) | Plant response rating, Ryegrass, Italian ([17]; 125 g ai/ha) | Plant response rating, Flood, Sedge, Umbrella ([18]; 500 g ai/ha) | Plant response rating, Wheat ([19]; 125 g ai/ha) | Plant response rating, Wheat ([19]; 500 g ai/ha)
